According to PMC4550851, “Potential analgesic effects of a novel N-acylethanolamine acid amidase inhibitor F96 through PPAR-α” (Scientific Reports, 2015):

Legend:
Format in all cases: biochemical
[1] = target: T1, N-acylethanolamine acid amidase (NAAA) (Homo sapiens, UniProt Q02083); assay: enzyme activity assay, IC50
T1 sequence (Q02083 29-125): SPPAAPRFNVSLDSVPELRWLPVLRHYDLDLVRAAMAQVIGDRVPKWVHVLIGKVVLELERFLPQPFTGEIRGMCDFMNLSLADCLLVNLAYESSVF
T1 sequence (Q02083 126-359): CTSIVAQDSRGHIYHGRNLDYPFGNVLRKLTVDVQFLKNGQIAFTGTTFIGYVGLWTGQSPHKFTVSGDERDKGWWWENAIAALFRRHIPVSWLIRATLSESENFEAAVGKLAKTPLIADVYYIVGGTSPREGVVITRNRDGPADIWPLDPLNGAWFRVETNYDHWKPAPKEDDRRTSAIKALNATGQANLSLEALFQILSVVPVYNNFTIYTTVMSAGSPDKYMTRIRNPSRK

[2] = target: T2, N-acylethanolamine acid amidase (NAAA) (Rattus norvegicus, UniProt Q5KTC7); assay: enzyme activity assay with extracted recombinant rNAAA, heptadecenoylethanolamide substrate, concentration-response
T2 construct: extracted recombinant rat NAAA (rNAAA)
T2 sequence (Q5KTC7 34-130): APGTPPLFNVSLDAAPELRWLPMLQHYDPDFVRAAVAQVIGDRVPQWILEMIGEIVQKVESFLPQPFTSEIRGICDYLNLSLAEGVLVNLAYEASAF
T2 sequence (Q5KTC7 131-362): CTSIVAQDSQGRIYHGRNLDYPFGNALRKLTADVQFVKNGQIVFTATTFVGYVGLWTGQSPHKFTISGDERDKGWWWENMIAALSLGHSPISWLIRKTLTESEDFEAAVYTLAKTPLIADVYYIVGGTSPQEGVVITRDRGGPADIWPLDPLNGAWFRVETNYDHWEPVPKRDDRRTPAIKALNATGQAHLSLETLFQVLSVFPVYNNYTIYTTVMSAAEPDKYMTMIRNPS

FAAH = target: T3, FAAH (Rattus norvegicus, UniProt P97612); assay: enzyme activity assay with extracted recombinant rFAAH, anandamide substrate (selectivity counter-assay)
T3 construct: extracted recombinant rat FAAH (rFAAH)
T3 sequence (P97612 1-579): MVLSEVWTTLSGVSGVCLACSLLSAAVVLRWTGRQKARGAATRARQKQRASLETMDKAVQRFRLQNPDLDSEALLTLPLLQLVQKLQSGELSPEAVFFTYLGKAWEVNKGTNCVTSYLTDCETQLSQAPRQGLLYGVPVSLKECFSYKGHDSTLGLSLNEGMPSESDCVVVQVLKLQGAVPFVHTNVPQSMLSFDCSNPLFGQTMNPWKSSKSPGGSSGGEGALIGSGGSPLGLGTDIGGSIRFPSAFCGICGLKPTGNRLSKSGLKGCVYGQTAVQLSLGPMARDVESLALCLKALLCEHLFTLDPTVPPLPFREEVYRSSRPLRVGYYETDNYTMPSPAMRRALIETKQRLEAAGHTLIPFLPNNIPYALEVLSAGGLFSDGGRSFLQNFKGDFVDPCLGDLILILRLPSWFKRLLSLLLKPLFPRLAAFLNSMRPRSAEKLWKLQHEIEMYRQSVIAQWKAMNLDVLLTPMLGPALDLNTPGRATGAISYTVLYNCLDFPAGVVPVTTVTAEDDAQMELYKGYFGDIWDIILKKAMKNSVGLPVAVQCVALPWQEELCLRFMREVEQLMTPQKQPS

IC50 [1]: 0.269 ± 0.0438 µM
IC50 [2]: 0.269 ± 0.0224 µM
IC50 (FAAH): 42 ± 1.92 µM
SMILES: O=C(CCCCCc1ccccc1)N1CCOC1=O [F96, 3-(6-phenylhexanoyl)oxazolidin-2-one]
